Experimental data taken from article PMC6759624, “Unraveling Heparan Sulfate Proteoglycan Binding Motif for Cancer Cell Selectivity” (Frontiers in Oncology, 2019).
Entries after “also recorded” stand apart in the source; their conditions may differ.

What was measured:
glypican-3 = test: SPR, NT4 binding to recombinant glypican-3; design: species or system human; settings: rHSPG over immobilized NT4
Protocol: (§1) Experiments were performed on a Biacore T100 instrument (GE Healthcare). All materials were purchased from GE Healthcare unless otherwise specified. Full-length recombinant human HSPG were purchased from R&D Systems. Syndecan-3, syndecan-4, and glypican-3 were obtained from the mouse myeloma cell line (NS0), and glypican-4 was obtained from the Chinese Hamster Ovary cell line. The activity of syndecan-4, glypican-3, and glypican-4 was measured by the supplier as the ability of the immobilized protein to bind FGF-basic. The activity of syndecan-3 was measured by the supplier as the ability of the immobilized protein to inhibit adhesion of Saos-2 human osteosarcoma cells to human fibronectin.
(§2) NT4-biotin was captured on a CM5 sensor chip where streptavidin had previously been immobilized by standard amine coupling. Briefly, the sensor chip surface was activated with a mixture of 0.1 M 1-ethyl-3(3-dimethylaminopropyl)-carbodiimide (EDC) and 0.4 M N-hydroxyl succinimide (NHS) for 7 min at a flow rate of 5 μl/min. Streptavidin was injected over the surface for 7 min, and finally, 1 M ethanolamine pH 8.5 was used to block any activated carboxyl groups. […]
(§3) Kinetics were analyzed with the Biacore T100 evaluation 1.1.1 software using the 1:1 Langmuir model to fit the curves.

cancer cells = settings: ref [20]; cited from earlier work
Description: NT4 is already known to have major effects on cancer cells, such as inhibition of migration and invasion of ECM induced by FGF ([20]).

syndecan-4 = test: SPR, NT4 binding to recombinant syndecan-4; design: species or system human; settings: rHSPG over immobilized NT4
Protocol: as §1, §2, §3

glypican-4 = test: SPR, NT4 binding to recombinant glypican-4; design: species or system human; settings: rHSPG over immobilized NT4
Protocol: as §1, §2, §3

syndecan-3 = test: SPR, NT4 binding to recombinant syndecan-3; design: species or system human; settings: rHSPG 25 μg/mL over immobilized NT4
Protocol: as §1, §2, §3

[1] = design: method as in PMID 27255651; settings: compared with heparin and HS; ref [13]; cited from earlier work
[2] = ref [9], [10]; cited from earlier work
Description: (§4) NT4 peptide is a tetrabranched peptide that binds to GAG chains of HSPG. […] NT4 binds cell lines of different human cancers, including colon adenocarcinoma, pancreas adenocarcinoma, bladder cancer, and breast cancer ([11], [12]).

PgsA-745 cells = settings: Chinese hamster ovary cell mutant, deficient in xylosyltransferase; ref [13]; cited from earlier work
Description: as §4

[3] = tested on: cell lines of different human cancers, including colon adenocarcinoma, pancreas adenocarcinoma, bladder cancer, and breast cancer; settings: ref [11], [12]; cited from earlier work
Description: as §4

cancer cells or tissues = tested on: cancer cells or tissues; design: method as in PMID 27255651, PMID 23713525; settings: competitors heparin and HS; ref [13], [19]; cited from earlier work

For (pyELYENKPRRPYIL)4K2K-beta-Ala [NT4], the “binding to glypican-3” value (glypican-3) is listed as “bound; also recorded: binds”, the “effect on migration and invasion of ECM induced by FGF” value (cancer cells) is listed as “inhibition” and the “binding to syndecan-4” value (syndecan-4) is listed as “binds”. The “binding to glypican-4” value (glypican-4) was “bound; also recorded: binds”, the “binding to syndecan-3” value (syndecan-3) was “does not bind; also recorded: did not bind” and the “binding to chondroitin sulfate” value [1] was “lower affinity”. For the same substance, the “half-life (in words)” value [2] was “long half-life”, the “stability to proteolytic enzymes” value [2] was “stable to proteolytic enzymes” and the “binding to cells lacking GAG chains” value (PgsA-745 cells) was “does not bind”. The “binding to human cancer cell lines” value [3] was “binds” and the “inhibition of NT4 binding and internalization by heparin and HS” value (cancer cells or tissues) was “completely inhibited”.
